In patent US20150247149A1, “Detecting and Treating Liver Damage” (The Regents of the University of California, priority 2012, published 2015):

Tested on: HepG2 and primary rat hepatocytes
Assay: Release of Annexin V-positive MPs from hepatocytes (flow cytometry)
Assay type: cell-based, human (HepG2); rat (primary hepatocytes)
Details: hepatocytes incubated with 0.25 mM FFA up to 24 h, vs controls (FIGS. 2D, 2F, 9)
Method: For microparticles (MPs) isolation, HepG2 and primary rat hepatocytes were seeded onto a 100 mm dish and cultured until reaching 80-85% of confluence. Cells were incubated with 0.25 mM of palmitic, stearic, oleic or linoleic acid (FFA) in serum-free DMEM, supplemented with 1.1% penicillin and streptomycin, 1% endotoxin-free bovine serum albumin (BSA), for up to 24 h. […] The uptake of FFAs from hepatocytes was evaluated by Oil red-O staining kit (Cayman, Ann Arbor, Mich., USA) according to the manufacturer instruction. To determine the effect of caspase 3 activity, hepatocytes were treated with a selective caspase 3 inhibitor, Ac-DEVD-CHO (BD Pharmingen, Franklin Lakes, N.J., US). Control cells were incubated with the same serum-free media in association to the vehicle that was used to dissolve the FFAs. After 24 h, the supernatant were collected and centrifuged twice at 3,000 rpm for 15 minutes to remove cell debris and aggregates. The supernatant was then transferred to new tubes and ultracentrifuged at 100,000 g for 90 minutes at 10° C., to avoid contamination of exosomes.
The supernatant was collected in new tubes and used as a MP-free control and the pelleted MPs were resuspended in 200 μl of PBS for flow cytometry or in 500 μl of EGM-2 growth medium for subsequent in vitro studies. The concentration of microparticles μg/mL was determined by the BCA protein assay and different concentrations of MPs (50, 125, 250 and 500 μg/mL) were used to perform the dose-dependent angiogenesis in vitro assays. For selected purposes, in particular for the characterization analyses, crude MPs were purified by 10-70% sucrose gradient ultracentrifugation at 150,000 g for 18 h at 10° C., collected as fractions in new tubes. […]
Flow cytometry analyses for microparticles (or endothelial cells) detection were performed by using BD LSRII Flow Cytometer System (BD Biosciences, San Jose, Calif., USA) and the data were analyzed using FlowJo software (TreeStar Inc., Ashland, Oreg., USA). […]

| SMILES | Annexin V positive MPs in supernatants (MP formation/release) |
| --- | --- |
| CCCCCCCC/C=C\CCCCCCCC(=O)O [oleic acid] | failed to induce any increase |
| CCCCCCCCCCCCCCCC(=O)O [palmitic acid] | marked increase |
